According to paper PMC5322520, “TubZ filament assembly dynamics requires the flexible C-terminal tail” (Scientific Reports, 2017):

Tests used:
CbTubZ316 = target: T1, CbTubZ316 (Clostridium phage c-st, UniProt Q331T7); conditions: nucleotide-binding pocket; crystals at pH 5.5, 22 °C
T1 construct: gene tubZ

BtTubZ = target: T2, BtTubZ (Bacillus thuringiensis, UniProt Q8KNP3); assay: HPLC of polymer-bound nucleotide; format: biochemical
T2 construct: gene tubZ; construct not described in main text; filaments
T2 sequence (Q8KNP3 whole entry): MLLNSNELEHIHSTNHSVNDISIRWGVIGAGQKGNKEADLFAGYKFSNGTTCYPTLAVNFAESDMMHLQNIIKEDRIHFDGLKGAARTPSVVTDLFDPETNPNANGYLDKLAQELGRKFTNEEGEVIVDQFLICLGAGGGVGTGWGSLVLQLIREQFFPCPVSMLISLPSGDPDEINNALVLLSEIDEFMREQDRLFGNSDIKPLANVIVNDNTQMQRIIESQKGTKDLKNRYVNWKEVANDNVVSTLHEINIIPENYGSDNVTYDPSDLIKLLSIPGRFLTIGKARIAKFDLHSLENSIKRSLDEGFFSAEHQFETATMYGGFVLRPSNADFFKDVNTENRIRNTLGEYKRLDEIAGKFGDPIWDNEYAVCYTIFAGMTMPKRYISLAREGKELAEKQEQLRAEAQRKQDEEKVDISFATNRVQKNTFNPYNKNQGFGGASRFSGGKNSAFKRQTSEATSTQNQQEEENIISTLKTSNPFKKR

T1 sequence (Q331T7 1-316 limits assumed): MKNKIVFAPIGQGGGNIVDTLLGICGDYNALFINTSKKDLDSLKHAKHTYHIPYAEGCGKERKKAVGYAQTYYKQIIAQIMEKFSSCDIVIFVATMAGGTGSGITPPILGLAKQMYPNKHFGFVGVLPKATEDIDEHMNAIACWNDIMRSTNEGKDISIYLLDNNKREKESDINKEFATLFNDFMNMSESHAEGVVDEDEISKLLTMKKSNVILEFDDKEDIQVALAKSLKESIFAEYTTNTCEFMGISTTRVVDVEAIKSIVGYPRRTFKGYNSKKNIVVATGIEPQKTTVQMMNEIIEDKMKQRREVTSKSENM

`Nc1nc2c(ncn2[C@@H]2O[C@H](COP(=O)(O)OP(=O)(O)O)[C@@H](O)[C@H]2O)c(=O)[nH]1` [GDP] was tested, and the “X-ray crystal structure, 2.4 Å” value (CbTubZ316) was “TubZ316 displays GDP at the nucleotide-binding pocket”.
`Nc1nc2c(ncn2[C@@H]2O[C@H](COP(=O)(O)OP(=O)(O)OP(O)(O)=S)[C@@H](O)[C@H]2O)c(=O)[nH]1` [GTP-γ-S] was tested, and the “HPLC of polymer-bound nucleotide” value (BtTubZ; filaments assembled with GTP-γ-S) was “nucleotide content of BtTubZ filaments assembled with GTP- γ-S and GTP”.
`Nc1nc2c(ncn2[C@@H]2O[C@H](COP(=O)(O)OP(=O)(O)OP(=O)(O)O)[C@@H](O)[C@H]2O)c(=O)[nH]1` [GTP] was tested, and the “HPLC of polymer-bound nucleotide” value (BtTubZ; filaments assembled with GTP) was “nucleotide content of BtTubZ filaments assembled with GTP- γ-S and GTP”.
